The values that follow come from PubChem BioAssay AID328 (DTP/NCI, 2004).

For the assay, the system named is BDF1 mice, P388 leukemia ip, median survival T/C. As to the kind of experiment: NCI In Vivo Anticancer Drug Screen. Data for tumor model P388 Leukemia (intraperitoneal) in B6D2F1 (BDF1) mice. The following applies: endpoint: median survival time, higher = longer survival. In short, it runs like this: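 Reported as T/C, where T is the survival measurement in dosed animals and C the same measurement in vehicle controls.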

[1] abbreviates: dose: 25.0 mg/kg/injection, schedule: Q01DX009 (ip), vehicle: Klucel (hydroxypropylcellulose) (HPC).
The mark [2] stands for this setting: dose: 100.0 mg/kg/injection, schedule: Q01DX009 (ip), vehicle: saline with Tween-80.
[3] abbreviates: dose: 200.0 mg/kg/injection, schedule: Q01DX009 (ip), vehicle: saline with Tween-80.
[4] abbreviates: dose: 12.5 mg/kg/injection, schedule: Q01DX009 (ip), vehicle: Klucel (hydroxypropylcellulose) (HPC).
Setting [5] is: dose: 50.0 mg/kg/injection, schedule: Q01DX009 (ip), vehicle: saline with Tween-80.

“And” between values parts separate entries of the source, which are not always exact repeats. Equal entries are not always repeated. Inconclusive results and toxic doses are left out.

On to `CCC[CH2][Sn]([CH2]CCC)[CH2]CCC.CCC[CH2][Sn]([CH2]CCC)[CH2]CCC`, for which the T/C (dose: 3.75 mg/kg/injection, schedule: Q01DX009 (ip), vehicle: saline with Tween-80) is 110 % of control; the T/C (dose: 7.5 mg/kg/injection, schedule: Q01DX009 (ip), vehicle: saline with Tween-80) is 92 % of control; the T/C (dose: 13.0 mg/kg/injection, schedule: Q04DX003 (ip), vehicle: saline with Tween-80) was 112 % of control; the T/C (dose: 15.0 mg/kg/injection, schedule: Q01DX009 (ip), vehicle: saline with Tween-80) is 114 % of control; the T/C (dose: 20.0 mg/kg/injection, schedule: Q04DX003 (ip), vehicle: saline with Tween-80) is 100 % of control; the T/C under setting [1] was 95 % of control. The T/C (dose: 30.0 mg/kg/injection, schedule: Q04DX003 (ip), vehicle: saline with Tween-80) was 108 % of control.

Turning to `CCNC(C)(C)C(SSS)c1ccco1` (stereo not given), the T/C runs as follows: (dose: 100.0 mg/kg/injection, schedule: Q04DX003 (ip), vehicle: gum acacia) 100 % of control and 116 % of control; (dose: 134.0 mg/kg/injection, schedule: Q01DX009 (ip), vehicle: gum acacia) 100 % of control; (dose: 200.0 mg/kg/injection, schedule: Q04DX003 (ip), vehicle: gum acacia) 109 % of control; (dose: 400.0 mg/kg/injection, schedule: Q04DX003 (ip), vehicle: gum acacia) 91 % of control and 122 % of control.

For `COc1ccc(CC[N+]2=Cc3cc(OC)c(OC)cc3CC2)cc1OC`, the T/C was 104 % of control and 111 % of control (dose: 6.25 mg/kg/injection, schedule: Q01DX009 (ip), vehicle: saline); 100 % of control (dose: 12.5 mg/kg/injection, schedule: Q01DX009 (ip), vehicle: saline); 109 % of control (dose: 12.5 mg/kg/injection, schedule: Q04DX003 (ip), vehicle: saline); 100 % of control and 104 % of control (dose: 25.0 mg/kg/injection, schedule: Q01DX009 (ip), vehicle: saline); 117 % of control (dose: 25.0 mg/kg/injection, schedule: Q04DX003 (ip), vehicle: saline); 95 % of control and 103 % of control and 107 % of control (dose: 50.0 mg/kg/injection, schedule: Q01DX009 (ip), vehicle: saline). For the same compound, the T/C is 101 % of control and 103 % of control (dose: 50.0 mg/kg/injection, schedule: Q04DX003 (ip), vehicle: saline); 98 % of control (dose: 100.0 mg/kg/injection, schedule: Q01DX009 (ip), vehicle: saline); 95 % of control (dose: 150.0 mg/kg/injection, schedule: Q01DX009 (ip), vehicle: saline).

`CC(=O)C1CC2c3ccccc3C1c1ccccc12` (stereo not given): the T/C is 95 % of control under setting [2] and 87 % of control under setting [3].

As for `O=C1c2ccccc2C(=O)c2c(NCCCCCO)ccc(NCCCCCO)c21`, the T/C is 88 % of control (dose: 25.0 mg/kg/injection, schedule: Q01DX009 (ip), vehicle: other) and 88 % of control (dose: 100.0 mg/kg/injection, schedule: Q01DX009 (ip), vehicle: other).

In the case of `C1O[C@@H]1[C@@H]1CO1`, the T/C is 100 % of control (dose: 100.0 mg/kg/injection, schedule: Q01DX006 (ip), vehicle: water); 104 % of control and 120 % of control (dose: 100.0 mg/kg/injection, schedule: Q01DX010 (ip), vehicle: water); 100 % of control (dose: 200.0 mg/kg/injection, schedule: Q01DX006 (ip), vehicle: water); 150 % of control (dose: 200.0 mg/kg/injection, schedule: Q01DX010 (ip), vehicle: water); 113 % of control (dose: 225.0 mg/kg/injection, schedule: Q01DX010 (ip), vehicle: water); 100 % of control (dose: 300.0 mg/kg/injection, schedule: Q01DX006 (ip), vehicle: water). Moreover, the T/C (dose: 300.0 mg/kg/injection, schedule: Q01DX010 (ip), vehicle: water) was 100 % of control; the T/C (dose: 335.0 mg/kg/injection, schedule: Q01DX010 (ip), vehicle: water) was 90 % of control; the T/C (dose: 400.0 mg/kg/injection, schedule: Q01DX006 (ip), vehicle: water) is 100 % of control; the T/C (dose: 400.0 mg/kg/injection, schedule: Q01DX010 (ip), vehicle: water) was 86 % of control and 95 % of control; the T/C (dose: 600.0 mg/kg/injection, schedule: Q01DX010 (ip), vehicle: water) was 90 % of control.

Turning to `COc1cccc2c1C(=O)c1c(O)c3c(c(O)c1C2=O)CC(O)(C(=O)CO)CC3OC1CC(N)C(O)C(C)O1` (stereo not given), the T/C by setting is: (dose: 1.73 mg/kg/injection, schedule: Q01DX004 (ip), vehicle: water) 234 % of control; (dose: 2.88 mg/kg/injection, schedule: Q01DX004 (ip), vehicle: water) 246 % of control; (dose: 4.8 mg/kg/injection, schedule: Q01DX004 (ip), vehicle: water) 283 % of control; (dose: 6.48 mg/kg/injection, schedule: Q04DX003 (ip), vehicle: saline) 158 % of control; (dose: 10.8 mg/kg/injection, schedule: Q04DX003 (ip), vehicle: saline) 169 % of control; (dose: 18.0 mg/kg/injection, schedule: Q04DX003 (ip), vehicle: saline) 187 % of control. Besides, where the note is “dose: 30.0 mg/kg/injection, schedule: Q04DX003 (ip), vehicle: saline”, the T/C was 116 % of control.

Regarding `CC(=O)Nc1ccc(NC2=NCCO2)cc1`, the T/C reads like this: (dose: 50.0 mg/kg/injection, schedule: Q01DX001 (ip), vehicle: saline with Tween-80) 100 % of control; (dose: 100.0 mg/kg/injection, schedule: Q01DX001 (ip), vehicle: saline with Tween-80) 95 % of control; (dose: 200.0 mg/kg/injection, schedule: Q01DX001 (ip), vehicle: saline with Tween-80) 90 % of control.

Regarding `CC(=O)CC(C)=O.CC(=O)CC(C)=O.c1cc[c]([Sn][c]2ccccc2)cc1`, the T/C was 160 % of control (dose: 100.0 mg/kg/injection, schedule: Q01DX001 (ip), vehicle: Klucel (hydroxypropylcellulose) (HPC)) and 166 % of control (dose: 200.0 mg/kg/injection, schedule: Q01DX001 (ip), vehicle: Klucel (hydroxypropylcellulose) (HPC)).

For `NC(=O)c1cn[nH]c1N`, the T/C under setting [4] was 95 % of control; the T/C under setting [1] is 87 % of control; the T/C (dose: 50.0 mg/kg/injection, schedule: Q01DX009 (ip), vehicle: Klucel (hydroxypropylcellulose) (HPC)) is 91 % of control; the T/C (dose: 100.0 mg/kg/injection, schedule: Q04DX003 (ip), vehicle: Klucel (hydroxypropylcellulose) (HPC)) is 104 % of control; the T/C (dose: 200.0 mg/kg/injection, schedule: Q04DX003 (ip), vehicle: Klucel (hydroxypropylcellulose) (HPC)) was 100 % of control; the T/C (dose: 400.0 mg/kg/injection, schedule: Q04DX003 (ip), vehicle: Klucel (hydroxypropylcellulose) (HPC)) was 113 % of control.

For `CN1C(=O)C(=O)c2ccccc21`, the T/C is, setting by setting: under setting [5], 94 % of control; under setting [2], 97 % of control; under setting [3], 93 % of control.

Turning to `CCCCCC#CC(=O)O`, the T/C is, setting by setting: under setting [5], 99 % of control; under setting [2], 100 % of control; under setting [3], 90 % of control.

As to `Cc1cc(N(CCOS(C)(=O)=O)CCOS(C)(=O)=O)ccc1C=Nc1ccc(-c2csc(Cc3ccccc3)n2)cc1`, the T/C reads like this: (dose: 8.25 mg/kg/injection, schedule: Q01DX009 (ip), vehicle: Klucel (hydroxypropylcellulose) (HPC)) 100 % of control and 211 % of control; (dose: 12.4 mg/kg/injection, schedule: Q01DX009 (ip), vehicle: Klucel (hydroxypropylcellulose) (HPC)) 225 % of control; under setting [4], 250 % of control; (dose: 18.7 mg/kg/injection, schedule: Q01DX009 (ip), vehicle: Klucel (hydroxypropylcellulose) (HPC)) 155 % of control; (dose: 18.75 mg/kg/injection, schedule: Q01DX009 (ip), vehicle: Klucel (hydroxypropylcellulose) (HPC)) 227 % of control and 178 % of control; (dose: 28.13 mg/kg/injection, schedule: Q01DX009 (ip), vehicle: Klucel (hydroxypropylcellulose) (HPC)) 99 % of control.
